Assay results: patent US20240208940A1, “SMALL-MOLECULE INHIBITORS FOR BETA-CATENIN/BCELL LYMPHOMA 9 PROTEIN-PROTEIN INTERACTION” (H. LEE MOFFITT CANCER CENTER AND RESEARCH INSTITUTE, INC., priority 2021, published 2024)

Legend:
[1] = test system: Wnt target genes Axin2, BCL9L, MMP7 in SW480 cells; assay: Quantitative real-time PCR of Wnt target genes; assay type: cell-based, human; conditions: 24-h incubation
Experimental: Quantitative Real Time PCR analysis. SW480 cells at 1×10^6 cells/mL were treated with inhibitors at different concentrations for 24 h. Total RNAs were extracted with TRIzol (15596026, Life Technologies), and the cDNA was synthesized with the superscript III first-strand kit (18080-051, Invitrogen). qPCR experiments were performed using the iQ™ SYBR green supermix kit (170-8880, BIO-RAD) on an CFX96 Real Time System (BIO-RAD). The threshold cycle (CT) values were normalized to that of internal reference GAPDH. Experiments were performed in triplicate. The primer pairs are shown below

Axin2 = assay: Western blot of Wnt target gene protein expression; assay type: cell-based; conditions: SW480 cells, 24-h incubation
Experimental: Western Blotting of Wnt Target Genes. SW480 cells at 1×10^6 cells/mL were treated with different concentrations of inhibitors for 24 h. Cells were lysed in buffer containing 50 mM Tris (pH 7.4), 150 mM NaCl, 1% Nonidet P-40, 0.1% SDS, 0.5% sodium deoxycholate, and protease inhibitors. After centrifugation at 12,000 rpm for 20 min at 4° C., the supernatant was boiling in the SDS sample buffer and loaded onto an 8% SDS polyacrylamide gel for electrophoretic analysis. Separated proteins were transferred onto nitrocellulose membranes for immunoblot analysis. The antibodies against Axin2 (MA5-15015, Thermo Fisher) and f-tubulin (sc-55529, Santa Cruz Biotechnology) were incubated with the membranes overnight at 4° C., respectively. IRDye 680LT goat anti-mouse IgG (827-11080, LiCOR) or IRDye 800CW goat anti-rabbit IgG (827-08365, LiCOR) was used as the secondary antibody. The images were detected by the Odyssey Infrared Imaging System (LiCOR). Experiments were performed in duplicate.

[2] = test system: Wnt/β-catenin transactivation (TOPFlash) in SW480 cells; assay: Wnt-responsive TOPFlash luciferase reporter assay; assay type: cell-based; conditions: 24 h
Experimental: (§1) Cell Transfection and Luciferase Assay. FuGENE6 (E269 Å, Promega) 96 well plate format was used for the transfection of SW480 cells according to the manufacturer's instruction. SW480 cells were co-transfected with 60 ng of the TOPFlash or FOPFlash firefly luciferase reporter gene and 40 ng of the Renilla luciferase pCMV-RL normalization reporter gene. Cells were cultured in DMEM and 10% FBS at 37° C. for 24 h, and then different concentrations of inhibitors or DMSO was added and incubated in DMEM with 5% FBS. After 24 h, the luciferase reporter activity was measured using the Dual-Glo system (E2940, Promega). Normalized luciferase activity in response to the treatment with inhibitors was compared with that obtained from the cells treated with DMSO. Experiments were performed in triplicate.

β-catenin/BCL9 PPI [3] = target: β-catenin/BCL9 PPI (Homo sapiens (Human), UniProt P35222); assay: AlphaScreen competitive inhibition assay of β-catenin/BCL9 PPI; assay type: binding; conditions: mean ± standard deviation (n = 3)
In short: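 5 nM biotinylated BCL9 and 50 nM His6-β-catenin were preincubated 30 min in pH 7.4 Hepes/NaCl/Triton/BSA buffer, then with inhibitor for 1 h, then 10 μg/mL donor/acceptor beads for 1 h, with 1% DMSO. IC50 came from nonlinear fitting, and Ki was calculated from IC50 by the Wang equation.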

β-catenin/E-cadherin PPI = assay: Cell-based co-IP, β-catenin/E-cadherin; conditions: HCT116 cells, 24 h; concentrations sufficient to disrupt β-catenin/BCL9 PPI
Experimental: (§2) Co-IP Experiments. HCT116 cancer cells with hyperactive β-catenin signaling at 1×10^6 cells/mL were treated with different concentrations of the inhibitor for 24 h. Cells were then lysed in buffer containing 50 mM Tris, pH 7.4, 150 mM NaCl, 1% Nonidet P-40, 2 mM EDTA and protease inhibitors. The cell lysates were pre-adsorbed to A/G plus agarose (sc-2003, Santa Cruz Biotechnology) at 4° C. for 1 h. Pre-adsorbed lysates were incubated with a specific primary antibody against β-catenin (610153, BD Biosciences) overnight at 4° C. A/G plus agarose was then added to the lysate mixture and incubated for 3 h. The beads were washed four times with buffer B (20 mM Tris pH 7.4, 150 mM NaCl, 0.1% NP-40) at 4° C. The bound protein was eluted by boiling in the SDS sample buffer and loaded onto 8% SDS polyacrylamide gel for electrophoretic analysis. Separated proteins were transferred onto nitrocellulose membranes for immunoblot analysis. The antibodies against BCL9 (ab37305, Abcam) and E-cadherin (610404, BD Biosciences) were incubated with the membranes, respectively. IRDye 680LT goat anti mouse IgG (827-11080, LiCOR) and IRDye 800CW goat anti rabbit IgG (926-32211, LiCOR) were used as the secondary antibodies. The images were detected by the Odyssey Infrared Imaging System (LiCOR). Experiments were performed in triplicate.

MCF10A cells = assay: MTS cell growth inhibition, normal breast epithelial cells; assay type: cell-based, human; conditions: 72 h
Experimental: MTS Cell Growth Inhibition Experiments. Colorectal cancer cells (SW480 and HCT116) and triple negative breast cancer cells (MDA-MB-231 and MDA-MB-468) were seeded in 96-well plates at 5×10^3 cells/well in DMEM with 10% fetal bovine serum (FBS), maintained overnight at 37° C., and then incubated with the tested compounds at various concentrations in DMEM with 5% FBS. Human mammary epithelial MCF10A cells were seeded in 96-well plates at 1×10^4 cells/well in MEGM (CC-3150, Lonza) with 100 ng/mL cholera toxin, maintained overnight at 37° C., and incubated with the tested compounds at various concentrations. Cell viability was monitored after 72 h using a freshly prepared mixture of 1 part phenazine methosulfate (PMS, Sigma) solution (0.92 mg/mL) and 19 parts 3-(4,5-dimethylthiazol-2-yl)-5-(3-carboxymethoxyphenyl)-2-(4-sulfophenyl)-2H-tetrazolium (MTS, Promega) solution (2 mg/mL). Cells were incubated in 10 μL of this solution at 37° C. for 3 h, and the UV absorption at 490 nm (A490) was measured. The effect of each compound is expressed as the concentration required to reduce A490 by 50% (IC50) relative to DMSO-treated cells. Experiments were performed in triplicate.

β-catenin/BCL9 PPI [4] = assay: Cell-based co-IP, β-catenin/BCL9; conditions: HCT116 cells, 24 h
Experimental: as §2

[5] = test system: FOPFlash reporter in SW480 cells; assay: FOPFlash luciferase reporter assay; assay type: cell-based; conditions: testing concentrations
Experimental: as §1

Sequence of β-catenin/BCL9 PPI (Homo sapiens (Human), UniProt P35222) (P35222 whole entry): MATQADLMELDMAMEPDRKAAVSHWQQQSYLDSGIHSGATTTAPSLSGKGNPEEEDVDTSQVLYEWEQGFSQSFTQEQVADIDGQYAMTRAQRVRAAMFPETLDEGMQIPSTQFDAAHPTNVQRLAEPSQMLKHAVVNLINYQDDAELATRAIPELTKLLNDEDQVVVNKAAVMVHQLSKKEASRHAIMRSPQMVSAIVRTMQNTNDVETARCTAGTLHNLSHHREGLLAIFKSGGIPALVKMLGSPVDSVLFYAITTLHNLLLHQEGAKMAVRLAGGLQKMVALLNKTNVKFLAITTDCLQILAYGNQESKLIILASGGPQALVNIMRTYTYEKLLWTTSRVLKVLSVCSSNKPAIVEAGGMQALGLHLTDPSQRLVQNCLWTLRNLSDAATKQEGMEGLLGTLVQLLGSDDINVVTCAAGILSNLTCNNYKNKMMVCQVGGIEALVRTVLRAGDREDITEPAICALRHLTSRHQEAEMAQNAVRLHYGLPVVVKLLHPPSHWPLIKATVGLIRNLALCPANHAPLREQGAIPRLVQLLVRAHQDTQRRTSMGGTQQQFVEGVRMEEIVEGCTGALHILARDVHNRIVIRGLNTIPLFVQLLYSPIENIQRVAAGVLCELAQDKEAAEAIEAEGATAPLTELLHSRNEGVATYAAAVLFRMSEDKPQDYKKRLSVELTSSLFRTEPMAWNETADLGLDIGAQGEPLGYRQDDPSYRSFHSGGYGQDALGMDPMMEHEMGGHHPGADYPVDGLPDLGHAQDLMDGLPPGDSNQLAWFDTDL

Compound: CC(C)(C)[C@H]1CC[C@@H](c2cc(C(=O)N3CCC(Oc4cc(N5CCNCC5)ccc4C#N)CC3)ccc2O[C@H]2CCNC2)CC1 [Compound 44]
- effect on house-keeper gene HPRT (qPCR) [1]: no effect
- transcription of Wnt target genes Axin2, BCL9L, MMP7 (qPCR) [1]: downregulated transcriptions
- protein expression level of Axin2 (Axin2): significant decreased
- IC50 [2]: 2600 nM
- Ki (β-catenin/BCL9 PPI [3]; derived from IC50, read-out: Ki ± SD): ≤ 2000 nM
- IC50 (β-catenin/BCL9 PPI [3]): ≤ 2000 nM
- effect on β-catenin/E-cadherin PPI (co-IP) (β-catenin/E-cadherin PPI): did not affect the β-catenin/E-cadherin PPI
- selectivity over normal breast epithelial MCF10A cells (MCF10A cells): > 4 fold
- disruption of β-catenin/BCL9 interaction (co-IP) (β-catenin/BCL9 PPI [4]): effectively disrupted β-catenin/BCL9 interaction
- FOPFlash luciferase activity [5]: not affected
